Test results as given in patent US8426406B2, “Glucocorticoid receptor agonist comprising 2,2,4-trimethyl-6-phenyl-1,2-dihydroquinoline derivatives having substituted oxy group” (Santen Pharmaceutical Co., Ltd., priority 2008, dated 2013).

System: IL-6 production induced by lipopolysaccharide (LPS) in human corneal epithelial cells
Assay: Evaluation test for GR agonist activity: inhibition of LPS-induced IL-6 production in human corneal epithelial cells (HCE-T)
Assay type: cell-based
Settings: Corneal epithelial cell, 10 μL of 100 μM test compound solution per well, 4 hours incubation, efficacy relative to DEX
Description: In order to evaluate a GR agonist activity of the present compound, the inhibitory effects on the IL-6 production induced by lipopolysaccharide (LPS) in human corneal epithelial cells. IL-6 levels in the conditioned medium were measured using the HTRF human IL-6 Kit (boehringer-Ingelheim, Cat No. 62IL6PEB), and the procedure was carried out according to the protocol attached to the kit. Hereinafter, the specific method will be described.
LPS solution: After LPS was dissolved in phosphate buffer solution (hereinafter referred to as PBS(−)), the resulting solution was diluted with 10% FBS-DMEM/F12 medium, whereby a 1 μg/mL LPS solution was prepared.
After a test compound was dissolved in dimethylsulfoxide (hereinafter referred to as DMSO), the resulting solution was diluted with 10% FBS-DMEM/F12 medium, whereby a 100 μM test compound solution was prepared. A 100 μM DEX solution was prepared by the same method, and the inhibitory ratio of IL-6 production of DEX was evaluated to use for calculating efficacy (% DEX).
Used cell: SV40-immortalized human corneal epithelial cells (HCE-T) (RIKEN)
1) HCE-T cells were harvested, and seeded at 2.0×10^4 cells/0.1 mL/well in a 96-well plate.
2) After incubation overnight, the medium was removed and a 80 μL of new 10% FBS-DMEM/Ham's F12 medium was added into each well.
3) A 10 μL of test compounds solution was added into each well.
4) A 10 μL of LPS solution was added into each well.
5) As a negative control, a 10 μL of 10% FBS-DMEM/Ham's F12 medium was added into each well instead of a test compound solution and a LPS solution.
6) As a positive control, a 10 μL of 10% FBS-DMEM/Ham's F12 medium containing 1% DMSO was added into each well instead of a test compound solution.
7) After 4 hours incubation, supernatants were collected and IL-6 levels in the supernatants were quantitated using the HTRF human IL-6 Kit.
8) The inhibition ratio of IL-6 production (%) was calculated according to the following equation.
The inhibition ratio of IL-6 production (%) was calculated according to the following equation. The inhibition ratio of IL-6 production(%)=100×[1−(IL-6 level in each group−mean value of IL-6 level in negative control)/(mean value of IL-6 level in positive control−mean value of IL-6 level in negative control)](%)
Furthermore, the inhibition ratio of IL-6 production (efficacy (% DEX)) was also calculated according to the following equation. Efficacy(% DEX)=100×{(mean value of IL-6 inhibition in compound-treated group)/(mean value of IL-6 inhibition in DEX-treated group)}(%) (Result and Discussion)

Structure (SMILES) | Emax [%]
COc1cc(OS(=O)(=O)C(C)C)ccc1-c1ccc2c(c1COC(=O)c1ccc(C)s1)C(C)=CC(C)(C)N2 [Compound 4-29, 6-(4-Isopropylsulfonyloxy-2-methoxyphenyl)-5-(5-methylthiophen-2-ylcarbonyloxymethyl)-2,2,4-trimethyl-1,2-dihydroquinoline] | 92
COc1cc(OC(=O)c2ccccc2F)ccc1-c1ccc2c(c1COC(=O)c1ccc(C)s1)C(C)=CC(C)(C)N2 [Compound 1-144, 6-[4-(2-Fluorobenzoyloxy)-2-methoxyphenyl]-5-(5-methylthiophen-2-ylcarbonyloxymethyl)-2,2,4-trimethyl-1,2-dihydroquinoline] | 94
COc1cc(OC(=O)c2occc2C)ccc1-c1ccc2c(c1COC(=O)c1ccc(C)s1)C(C)=CC(C)(C)N2 [Compound 1-171, 6-[2-Methoxy-4-(3-methylfuran-2-ylcarbonyloxy)phenyl]-5-(5-methylthiophen-2-ylcarbonyloxymethyl)-2,2,4-trimethyl-1,2-dihydroquinoline] | 87
COc1ccccc1NCc1c(-c2ccc(OC(=O)c3ccccc3SC)cc2OC)ccc2c1C(C)=CC(C)(C)N2 [Compound 1-111] | 81
COc1ccccc1NCc1c(-c2ccc(OS(C)(=O)=O)cc2OC)ccc2c1C(C)=CC(C)(C)N2 [Compound 4-20, 6-(2-Methoxy-4-methylsulfonyloxyphenyl)-5-(2-methoxyphenylaminomethyl)-2,2,4-trimethyl-1,2-dihydroquinoline] | 75
COc1cc(OC(=O)c2ccnc(Cl)c2)ccc1-c1ccc2c(c1COc1cc(F)ccc1C)C(C)=CC(C)(C)N2 [Compound 1-68, 6-[4-(2-Chloropyridin-4-ylcarbonyloxy)-2-methoxyphenyl]-5-(5-fluoro-2-methylphenoxymethyl)-2,2,4-trimethyl-1,2-dihydroquinoline] | 72
COc1cc(OC(=O)c2ccccc2C)ccc1-c1ccc2c(c1COC(=O)c1ccc(C)s1)C(C)=CC(C)(C)N2 [Compound 1-143, 6-[2-Methoxy-4-(2-methylbenzoyloxy)phenyl]-5-(5-methylthiophen-2-ylcarbonyloxymethyl)-2,2,4-trimethyl-1,2-dihydroquinoline] | 96
COc1cc(OC(=O)c2cscn2)ccc1-c1ccc2c(c1COc1cc(F)ccc1C)C(C)=CC(C)(C)N2 [Compound 1-40, 5-(5-Fluoro-2-methylphenoxymethyl)-6-[2-methoxy-4-(thiazol-4-ylcarbonyloxy)phenyl]-2,2,4-trimethyl-1,2-dihydroquinoline] | 75
COc1ccc([N+](=O)[O-])cc1OCc1c(-c2ccc(OC(=O)c3ccsc3)cc2OC)ccc2c1C(C)=CC(C)(C)N2 [Compound 1-81, 5-(2-Methoxy-5-nitrophenoxymethyl)-6-[2-methoxy-4-(thiophen-3-ylcarbonyloxy)phenyl]-2,2,4-trimethyl-1,2-dihydroquinoline] | 76
COc1cc(OC(=O)c2ccc(F)cc2)ccc1-c1ccc2c(c1COC(=O)c1ccc(C)s1)C(C)=CC(C)(C)N2 [Compound 1-169, 6-[4-(4-Fluorobenzoyloxy)-2-methoxyphenyl]-5-(5-methylthiophen-2-ylcarbonyloxymethyl)-2,2,4-trimethyl-1,2-dihydroquinoline] | 78
COc1cc(OC(=O)Nc2ccc(Cl)cc2)ccc1-c1ccc2c(c1COC(=O)c1ccc(C)s1)C(C)=CC(C)(C)N2 [Compound 6-27, 6-[4-(4-Chlorophenylaminocarbonyloxy)-2-methoxyphenyl]-5-(5-methylthiophen-2-ylcarbonyloxymethyl)-2,2,4-trimethyl-1,2-dihydroquinoline] | 94
COc1ccccc1NCc1c(-c2ccc(OC(=O)c3cccnc3OC)cc2OC)ccc2c1C(C)=CC(C)(C)N2 [Compound 1-117, 6-[2-Methoxy-4-(2-methoxypyridin-3-ylcarbonyloxy)phenyl]-5-(2-methoxyphenylaminomethyl)-2,2,4-trimethyl-1,2-dihydroquinoline] | 95
